Test results published in paper PMC7897990, “TriTOX: A novel Trichomonas vaginalis assay platform for high-throughput screening of compound libraries” (International Journal for Parasitology: Drugs and Drug …, 2021).
Read-outs that look alike come from different tables or passages of the source. Positions of bridges follow the written chain, without caps; N, C: chain ends. Non-standard residues stand in square brackets, D forms with d. Residues, ends and D or L forms follow the SMILES beside them. *: point of attachment. Ileψ(thiazoline)Cys = CC[C@H](C)[C@H](N)C1=N[C@H](C(=O)*)CS1; dOrn = NCCC[C@@H](N)C(=O)O

Key:
[1] = test system: nontumorigenic neonatal foreskin fibroblast (NFF) cell line
[2] = test system: Trichomonas vaginalis G3 trophozoites; conditions: for T.vaginalis_%inb_Rep1: replicate 1; for T.vaginalis_%inb_Rep2: replicate 2
[3] = NFF_NS1 screen 5 µg/mL, single concentration
[4] = HTS single concentration, parasite screen 1 µg/mL

SMILES | NFF_Activity [1, 3] | T.vaginalis_%inb_Rep1 [2, 4] [%] | T.vaginalis_%inb_Rep2 [2, 4] [%] | NFF_Activity ([1]; NFF cells, screen at 5 µg/mL) | T.vaginalis_%inb_Rep1 ([2]; parasite screen at 1 µg/mL) [%] | T.vaginalis_%inb_Rep2 ([2]; parasite screen at 1 µg/mL) [%]
CO[C@H]1/C=C\C=C(/C)C(=O)NC2=CC(=O)C(NCCN(C)C)=C(C[C@@H](C)C[C@H](OC)[C@H](O)[C@@H](C)/C=C(\C)[C@@H]1OC(N)=O)C2=O [BIA-A1924] | A (active (A) compounds having >25% inhibitory activity) | 5.66 | 62.10 | – | – | –
CC(=O)O[C@@H]1C[C@]2(C)[C@@]3(CO)[C@H](O)C(=O)C(C)=C[C@H]3O[C@H]1[C@@]21CO1 [BIA-A1925] | I (otherwise these were reported as inactive (I)) | 9.96 | 14.14 | – | – | –
Cc1cc(O)cc2oc(=O)c3c(O)cc(O)cc3c12 [BIA-A1926] | I (otherwise these were reported as inactive (I)) | 6.66 | 9.26 | – | – | –
O=c1cccc2n1C[C@H]1C[C@@H]2CN2CCCC[C@H]12 [BIA-A1939] | I (otherwise these were reported as inactive (I)) | 7.92 | 14.14 | – | – | –
CC(=O)OC[C@]12CCC(C)=C[C@H]1O[C@@H]1[C@H](O)[C@@H](O)[C@@]2(C)[C@]12CO2 [BIA-A1982] | A (active (A) compounds having >25% inhibitory activity) | 9.02 | 12.13 | – | – | –
COC1=CC(C)=CC(C)C(O)C(C)CC(C)=CC=CC(OC)C(C(C)C(O)C(C)C2(O)CC(O)C(C)C(C(C)C)O2)OC1=O (stereo not drawn) [BIA-B1012] | I (otherwise these were reported as inactive (I)) | 15.99 | 16.70 | – | – | –
COC1=CC(C)=CC(C)C(O)C(C)CC(C)=CC=CC(OC)C(C(C)C(O)C(C)C2(O)CC(OC(=O)C=CC(=O)NC3=C(O)CCC3=O)C(C)C(C(C)C)O2)OC1=O (stereo not drawn) [BIA-B1110] | I (otherwise these were reported as inactive (I)) | 72.75 | 93.35 | – | – | –
COC1=CC(C)=CC(C)C(O)C(C)CC(C)=CC=CC(OC)C(C(C)C(O)C(C)C(=O)C=CC(C)C(O)C(C)C)OC1=O (stereo not drawn) [BIA-B1162] | I (otherwise these were reported as inactive (I)) | 15.67 | 18.37 | – | – | –
CC(C)[C@@H]1OC(=O)[C@@H](Cc2ccccc2)N(C)C(=O)[C@H](C(C)C)OC(=O)[C@@H](Cc2ccccc2)N(C)C(=O)[C@H](C(C)C)OC(=O)[C@@H](Cc2ccccc2)N(C)C1=O [BIA-B1238] | I (otherwise these were reported as inactive (I)) | 16.21 | 4.70 | – | – | –
CC(C)C[C@H](NC(=O)[C@@H](O)[C@H](N)Cc1ccccc1)C(=O)O [BIA-B1278] | I (otherwise these were reported as inactive (I)) | 14.49 | 15.84 | – | – | –
C=C1CCOC2(C(O)C(C)(O)CO)NC(=O)C1(O)NC2=O (stereo not drawn) [BIA-B1367] | I (otherwise these were reported as inactive (I)) | 15.02 | 15.26 | – | – | –
CC(C)C[C@H]1C(=O)O[C@H](C(C)C)C(=O)N(C)[C@@H](CC(C)C)C(=O)O[C@H](C(C)C)C(=O)N(C)[C@@H](CC(C)C)C(=O)O[C@H](C(C)C)C(=O)N(C)[C@@H](CC(C)C)C(=O)O[C@H](C(C)C)C(=O)N1C [BIA-B1557] | I (otherwise these were reported as inactive (I)) | 15.24 | 16.12 | – | – | –
CN1C(=O)c2ccccc2-n2c(nc3ccccc3c2=O)C1=Cc1ccccc1 [BIA-B1646] | I (otherwise these were reported as inactive (I)) | 16.10 | 13.67 | – | – | –
CN1C(=O)c2ccccc2-n2c(nc3ccccc3c2=O)C1Cc1ccccc1 (stereo not drawn) [BIA-B1647] | I (otherwise these were reported as inactive (I)) | 16.42 | 13.38 | – | – | –
C[C@@H](O)[C@H]1C(=O)N2C(C(=O)[O-])=C(SC3Cn4cnc[n+]4C3)[C@H](C)[C@H]12 (stereo partly drawn) [BIA-B1663] | I (otherwise these were reported as inactive (I)) | 15.29 | 20.32 | – | – | –
CN1C(=O)c2ccccc2-n2c(nc3ccccc3c2=O)C12OC2c1ccccc1 (stereo not drawn) [BIA-B1679] | I (otherwise these were reported as inactive (I)) | 16.96 | 15.26 | – | – | –

SMILES | NFF_Activity [1, 3] | T.vaginalis_%inb_Rep1 [2, 4] [%] | T.vaginalis_%inb_Rep2 [2, 4] [%] | NFF_Activity ([1]; NFF cells, screen at 5 µg/mL) | T.vaginalis_%inb_Rep1 ([2]; parasite screen at 1 µg/mL) [%] | T.vaginalis_%inb_Rep2 ([2]; parasite screen at 1 µg/mL) [%]
C=C(C)[C@@H]1CC[C@]2(C(=O)O)CC[C@]3(C)[C@H](CC[C@@H]4[C@@]5(C)CC[C@H](O)C(C)(C)[C@@H]5CC[C@]43C)[C@@H]12 [BIA-B1758] | I (otherwise these were reported as inactive (I)) | 14.81 | 7.30 | – | – | –
CC[C@H](C)[C@H](N)C1=N[C@H](C(=O)N[C@@H](CC(C)C)C(=O)N[C@H](CCC(=O)O)C(=O)N[C@H](C(=O)N[C@H]2CCCCNC(=O)[C@H](CC(N)=O)NC(=O)[C@@H](CC(=O)O)NC(=O)[C@H](Cc3cnc[nH]3)NC(=O)[C@@H](Cc3ccccc3)NC(=O)[C@H]([C@@H](C)CC)NC(=O)[C@@H](CCCN)NC2=O)[C@@H](C)CC)CS1 [BIA-B1784] ({Ileψ(thiazoline)Cys}-L[dE]IK[dOrn]I[dF]H[dD]N; lactam 4-C) | I (otherwise these were reported as inactive (I)) | 15.89 | 9.69 | – | – | –
C[C@H]1CCC/C=C/C(=O)c2c(O)cc(O)cc2CC(=O)O1 [BIA-D1399] | A (active (A) compounds having >25% inhibitory activity) | 13.95 | 13.67 | – | – | –
O=C(O)c1nccc2c1[nH]c1ccccc12 [BIA-F1943] | I (otherwise these were reported as inactive (I)) | 8.34 | 10.54 | – | – | –
COC1C=CC=C(C)C(=O)NC2=CC(=O)C=C(C2=O)C(OC)C(C)CC(OC)C(OC)C(C)C=C(C)C1OC(N)=O (stereo not drawn) [BIA-H1036] | – | – | – | I (otherwise these were reported as inactive (I)) | 12.63 | 12.64
CCCCCC(=O)N[C@H]1CCOC1=O [BIA-H1495] | – | – | – | I (otherwise these were reported as inactive (I)) | 10.40 | 12.70
CCCCCCCCCCCCCCCC(=O)N[C@H]1CCOC1=O [BIA-H1500] | – | – | – | I (otherwise these were reported as inactive (I)) | 13.84 | 11.55
Oc1cccc2nc3ccccc3nc12 [BIA-H1520] | – | – | – | I (otherwise these were reported as inactive (I)) | 9.69 | 12.89
Cc1cc(O)c(O)c2oc(=O)c3c(O)cc(O)cc3c12 [BIA-H1558] | – | – | – | I (otherwise these were reported as inactive (I)) | 10.09 | 9.24
COc1c(O)c(C)c(C)c(O)c1OC [BIA-H1651] | – | – | – | A (active (A) compounds having >25% inhibitory activity) | 13.69 | 12.19
Cc1cc(O)cc(=O)o1 [BIA-H1736] | – | – | – | I (otherwise these were reported as inactive (I)) | 11.05 | 13.86
C[C@@H]1OC(=O)[C@H]2C[C@H]3CCCC[C@@H]3[C@@H](/C=C/[C@H]3CCC[C@H](C)N3C)[C@@H]12 [BIA-H1744] | – | – | – | I (otherwise these were reported as inactive (I)) | 12.98 | 14.75
COc1ccc([C@@H]2CC(=O)c3c(O)cc(O[C@@H]4O[C@H](CO[C@@H]5O[C@@H](C)[C@H](O)[C@@H](O)[C@H]5O)[C@@H](O)[C@H](O)[C@H]4O)cc3O2)cc1O [BIA-H1766] | – | – | – | I (otherwise these were reported as inactive (I)) | 15.42 | 4.23
CN1CCC2(c3cccc4c3NC3N(C)CCC43C34CCN(C)C3Nc3ccccc34)c3ccccc3NC12 (stereo not drawn) [BIA-H1941] | – | – | – | A (active (A) compounds having >25% inhibitory activity) | 7.39 | 6.28
C[N+]1(C)CCC2(c3cccc4c3NC3C4(C45CC[N+](C)(C)C4Nc4ccccc45)CC[N+]3(C)C)c3ccccc3NC21.[I-].[I-].[I-] (stereo not drawn) [BIA-H1942] | – | – | – | I (otherwise these were reported as inactive (I)) | 9.49 | 13.53
CN1CCC2(c3cccc4c3NC3N(C)CCC43C34CCN(C)C3Nc3ccccc34)c3ccccc3NC12 (stereo not drawn) [BIA-H1948] | – | – | – | A (active (A) compounds having >25% inhibitory activity) | 8.81 | 5.36
